Results reported in ChEMBL document CHEMBL1177689, “Structural characteristics of green tea catechins for formation of protein carbonyl in human serum albumin” (Bioorg Med Chem, 2010).

What was measured:
Albumin = Albumin (Homo sapiens, UniProt P02768); assay: Binding affinity to human serum albumin in 100 mM phosphate buffer at pH 7.4 assessed as formation of biotin-LC-hydrazide labeled protein carbonyls at 100 uM pretreated 60 mins before biotin-LC-hydrazide challenge measured after 60 mins by SDS-PAGE/Western blotting; format: ADME; settings: isolated protein, pH 7.4, 1 h
[1] = Chemical stability in 100 mM phosphate buffer at pH 7.4 at 100 uM after 60 mins by HPLC analysis; format: physicochemical; settings: pH 7.4, 1 h

Sequence of Albumin (P02768 whole entry): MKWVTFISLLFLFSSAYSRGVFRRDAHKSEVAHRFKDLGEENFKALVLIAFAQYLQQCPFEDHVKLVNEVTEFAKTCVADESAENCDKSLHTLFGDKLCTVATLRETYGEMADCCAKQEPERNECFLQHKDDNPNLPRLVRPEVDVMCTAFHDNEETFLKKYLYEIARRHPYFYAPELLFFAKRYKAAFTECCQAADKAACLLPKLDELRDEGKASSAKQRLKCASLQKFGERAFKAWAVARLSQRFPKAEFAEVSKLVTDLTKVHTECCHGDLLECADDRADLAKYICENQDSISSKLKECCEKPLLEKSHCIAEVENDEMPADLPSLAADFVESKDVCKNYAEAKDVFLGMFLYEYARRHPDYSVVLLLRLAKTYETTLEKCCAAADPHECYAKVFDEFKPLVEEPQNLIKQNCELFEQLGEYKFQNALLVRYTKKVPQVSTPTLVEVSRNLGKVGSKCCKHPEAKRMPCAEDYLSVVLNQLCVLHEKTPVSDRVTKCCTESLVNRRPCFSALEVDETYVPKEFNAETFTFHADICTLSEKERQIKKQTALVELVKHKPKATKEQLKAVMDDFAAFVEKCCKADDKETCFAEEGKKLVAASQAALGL

Activity (Albumin)	Stability [1]	SMILES
Active	Stable	O=C(O[C@@H]1Cc2c(O)cc(O)cc2O[C@@H]1c1ccc(O)c(O)c1)c1cc(O)c(O)c(O)c1 [EPICATECHIN GALLATE]
Active		COc1c(O)cc(C(=O)O[C@@H]2Cc3c(O)cc(O)cc3O[C@@H]2c2cc(O)c(O)c(O)c2)cc1O
Not Active		O=C(O)c1cccc(O)c1O [2,3-DIHYDROXYBENZOIC ACID]
Active	Stable	Oc1cc(O)c2c(c1)O[C@H](c1ccc(O)c(O)c1)[C@H](O)C2 [(-)-EPICATECHIN]
Active	Stable	COc1c(O)cc([C@H]2Oc3cc(O)cc(O)c3C[C@H]2OC(=O)c2cc(O)c(O)c(O)c2)cc1O
Active	Unstable	COc1cc(C(=O)O[C@@H]2Cc3c(O)cc(O)cc3O[C@@H]2c2cc(O)c(O)c(O)c2)cc(O)c1O
Not Active		O=C(O)c1ccc(O)c(O)c1 [PROTOCATECHUIC ACID]
Active		Oc1cccc(O)c1O [PYROGALLOL]
Not Active		COC(=O)c1cc(O)c(O)c(O)c1 [GALLIC ACID METHYL ESTER]
Not Active		O=C(O)c1cc(O)cc(O)c1 [3,5-DIHYDROXYBENZOIC ACID]

SMILES	Activity (Albumin)	Stability [1]
Oc1cc(O)c2c(c1)O[C@H](c1cc(O)c(O)c(O)c1)[C@H](O)C2 [EPIGALLOCATECHIN]	Active	Unstable
O=C(O[C@@H]1Cc2c(O)cc(O)cc2O[C@@H]1c1cc(O)c(O)c(O)c1)c1cc(O)c(O)c(O)c1 [EPIGALOCATECHIN GALLATE]	Active	Unstable
